The results in this text go back to ChEMBL document CHEMBL4049444, “Topical Intestinal Aminoimidazole Agonists of G-Protein-Coupled Bile Acid Receptor 1 Promote Glucagon Like Peptide-1 Secretion and Improve Glucose Tolerance” (J Med Chem, 2017).

A short description of data set [1]: Half life in CD-1 mouse liver microsomes at 1 uM in presence of NADPH by LC-MS/MS analysis. The data set is classed as ADME, microsome. (In general: Microsomes from liver hold many membrane-bound enzymes, among them those of drug oxidation.)
A short description of data set [2]: Apparent permeability from apical to basolateral side in human Caco2 cells assessed as drug recovery at 5 uM after 1 hr by LC-MS/MS analysis. The data set is classed as ADME, cell-based. Particulars: Caco-2, read-out: Drug recovery.
The nature of data set [3]: Apparent permeability from basolateral to apical side in human Caco2 cells assessed as drug recovery at 5 uM after 1 hr by LC-MS/MS analysis. The data set is classed as ADME, cell-based. The note with it: Caco-2, read-out: Drug recovery.
Data set [4] in a line: 1-octanol/phosphate buffer solution partition coefficient, log D of the compound at pH 7.4 for 2 hrs by LC-MS/MS method. Format: physicochemical.
Data set [5] in a line: Apparent permeability from apical to basolateral side in human Caco2 cells at 5 uM after 1 hr by LC-MS/MS analysis. The data set is classed as ADME, cell-based. Particulars: Caco-2. For orientation: Passage across Caco-2 layers is used to estimate intestinal permeability.
Data set [6] in a line: physchem. Particulars: PBS/MeOH.
Data set [7] is described as follows: Apparent permeability from basolateral to apical side in human Caco2 cells at 5 uM after 1 hr by LC-MS/MS analysis. Format: ADME, cell-based. The note with it: Caco-2.
Data set [8] is described as follows: Apparent permeability from basolateral to apical side in human Caco2 cells at 10 uM after 1 hr by LC-MS/MS analysis. Format: ADME, cell-based. The note with it: Caco-2.
Data set [9] in a line: Apparent permeability from apical to basolateral side in human Caco2 cells at 10 uM after 1 hr by LC-MS/MS analysis. Format: ADME, cell-based. Particulars: Caco-2.
The nature of data set [10]: Cmax in C57BL6/J mouse liver at 20 mg/kg, po by LC-MS/MS analysis. Format: ADME, organism-based. On the set-up: dose 20 mg/kg, route oral.
Data set [11] is described as follows: Apparent permeability from basolateral to apical side in human Caco2 cells assessed as drug recovery at 10 uM after 1 hr by LC-MS/MS analysis. Format: ADME, cell-based. Particulars: Caco-2, read-out: Drug recovery.
Data set [12] is described as follows: AUC in C57BL6/J mouse at 20 mg/kg, po by LC-MS/MS analysis. The data set is classed as ADME, organism-based. The note with it: in vivo.
Data set [13] is described as follows: Cmax in C57BL6/J mouse plasma at 20 mg/kg, po by LC-MS/MS analysis. Format: ADME, organism-based. Further details: dose 20 mg/kg, route oral.
Data set [14] is described as follows: in vivo. Particulars: C57BL6/J, mouse, faeces, po, 20 mg/kg.
A short description of data set [15]: Cmax in C57BL6/J mouse gallbladder at 20 mg/kg, po by LC-MS/MS analysis. The data set is classed as ADME, organism-based, Gall bladder. On the set-up: dose 20 mg/kg, route oral.
Data set [16] can be described thus: Apparent permeability from apical to basolateral side in human Caco2 cells assessed as drug recovery at 10 uM after 1 hr by LC-MS/MS analysis. The data set is classed as ADME, cell-based. Particulars: Caco-2, read-out: Drug recovery.
Data set [17] is described as follows: Tmax in C57BL6/J mouse at 20 mg/kg, po by LC-MS/MS analysis. Format: ADME, organism-based. The note with it: in vivo.
The subject of data set [18] is Ileum. Description: Drug uptake in C57BL6 mouse ileum at 20 mg/kg, po after 8 hrs by LC-MS/MS. Format: ADME, organism-based. The note with it: in vivo.
A short description of data set [19]: Half life in C57BL6/J mouse at 20 mg/kg, po by LC-MS/MS analysis. Particulars: in vivo. The data set is classed as ADME, organism-based.
Data set [20] concerns Colon. Description: Drug uptake in C57BL6 mouse colon at 20 mg/kg, po after 8 hrs by LC-MS/MS. Format: ADME, organism-based. Particulars: in vivo.

Converted amounts (≈) assume the structure as drawn.

With `COc1ccc(N(C)c2cnc(SCc3c(F)cccc3F)n2-c2ccc(F)cc2)cc1OC`, in data set [1], the half-life at 1 µM was determined as 0.7 min. Also, the recovery at 1 h, 5 µM turned out to be 84.4% in data set [2] and 106% in [3]. In addition, the log distribution coefficient (logD) at 2 h in data set [4] was determined as 3.5. Besides, the apparent permeability from apical to basolateral (Papp A→B) at 1 h, 5 µM in data set [5] is 5.32 ×10⁻⁶ cm/s. The same compound showed a solubility at 24 h in data set [6] of 6.3 µM (≈ 3.06 µg/mL). In data set [7], the Papp B→A at 1 h, 5 µM came to 5.47 ×10⁻⁶ cm/s.

In the case of `COc1ccc(N(C)c2cnc(SCc3c(F)cc(C#CC[N+](C)(C)C)cc3F)n2-c2ccc(F)cc2)cc1OC.[I-]`, in data set [8], the Papp B→A at 1 h, 10 µM is 0.24 ×10⁻⁶ cm/s. Moreover, in data set [9], the Papp A→B at 1 h, 10 µM was 0.08 ×10⁻⁶ cm/s.

Turning to `COc1ccc(N(C)c2cnc(SCc3c(F)cc(OCCCS(=O)(=O)O)cc3F)n2-c2ccc(F)cc2)cc1OC.N`, the Cmax in data set [10] was determined as 385 nM; in data set [13] it was 102 nM; in data set [15], 11000 nM. Besides, the results for the recovery at 1 h, 10 µM in [11] and in [16] were 102% and 80.1%, respectively. For the same compound, the half-life at 1 µM in data set [1] amounted to 1.2 min. For the same compound, in data set [12], the exposure (AUC) is 96.2 ng·h/mL. Besides, in [14], the dose excreted at 24 h was determined as 100%. Moreover, the Tmax in [17] is 45 min. The apparent permeability from basolateral to apical (Papp B→A) at 1 h, 10 µM in [8] worked out at 19 ×10⁻⁶ cm/s. For the same compound, the Drug uptake result in [18] and in data set [20] was “Active” each time. The logD at 2 h in [4] stood at 0.8. In data set [19], this compound displayed a half-life of 317 min. Besides, the Papp A→B at 1 h, 10 µM in data set [9] came to 0.031 ×10⁻⁶ cm/s. The compound further showed a solubility at 24 h in [6] greater than 200 µM.

Consider `COc1ccc(N(C)c2cnc(SCc3c(F)cc(C#CC[N+](C)(C)C)cc3F)n2-c2ccc(F)cc2)cc1OC.O=C[O-]`, for which the recovery at 1 h, 10 µM in data set [11] turned out to be 93.4%; in data set [16], 69.8%. Besides, the area under the curve (AUC) in data set [12] was 48.5 ng·h/mL. The Cmax is 100 nM in data set [13] and 9030 nM in [15]. The same compound showed a dose excreted at 24 h in data set [14] of 88%. Further, in [17], the Tmax is 15 min. The pH-dependent lipophilicity (logD) at 2 h in data set [4] stood at 1. This compound had a half-life in data set [19] of 97 min.

As for `COc1ccc(N(C)c2cnc(SCc3c(F)cc(OCCC[N+]45CCN(CC4)CC5)cc3F)n2-c2ccc(F)cc2)cc1OC.O=C[O-]`, the recovery at 1 h, 10 µM in [11] stood at 99.6%; in data set [16], 69.3%. Also, the apparent permeability from basolateral to apical (Papp B→A) at 1 h, 10 µM in [8] was determined as 0.22 ×10⁻⁶ cm/s. Further, the pH-dependent lipophilicity (logD) at 2 h in data set [4] was found to be 0.9. Further, the apical-to-basolateral permeability (Papp A→B) at 1 h, 10 µM in [9] worked out at 0.016 ×10⁻⁶ cm/s.

One may read the half-life as the time needed for the level to fall by half in the phase considered. Broadly, the logD is the decadic logarithm of the distribution of all forms, ionised or not, between an organic phase and buffer at a given pH. The Papp A→B is the apparent permeability from the apical to the basolateral side of a cell layer. The solubility is how much of the substance goes into solution per volume. What is called Papp B→A is how fast a substance crosses the layer from the basolateral side. One may read the Cmax as the peak of the concentration-time curve. For orientation: AUC means the area under the concentration-time curve, a measure of exposure. A high value points to more exposure. Usually Tmax stands for the time at which the peak concentration occurs.
